Test results as given in US20060292221A1, “TIMED-RELEASE COMPRESSION-COATED SOLID COMPOSITION FOR ORAL ADMINISTRATION” (Astellas Pharma, Inc., priority 2000, published 2006).

Key:
[1] = Determination of percentage erosion of core tablet; format: physicochemical; settings: 3 hours in water at 37° C.; for Percentage erosion (%) of compression-coated tablets containing acetaminophen: core: 5 parts acetaminophen + 10 parts of the filler; for Percentage erosion (%) of compression-coated tablet containing Compound 1: core: 9 parts Compound 1 solid dispersion + 6 parts of the filler
Protocol: A compression-coated tablet containing drug is made in accordance with the method of producing a timed-release compression-coated solid composition disclosed in the present invention, the tablet is moistened for 3 hours in water at 37° C., then the gelled part of the tablet is peeled off and the portion of the core tablet that has not eroded is removed. The core tablet is allowed to dry overnight in a dryer at 40° C. and weight is determined. The value obtained by subtracting dry weight from initial core tablet weight and dividing this by initial core weight is multiplied by 100 to calculate the percentage erosion.
The percentage erosion of the core tablet of both of the above-mentioned pharmaceutical preparations was determined in accordance with the previously described method of determining the percentage erosion of the core tablet.
Then 6 parts by weight of each filler were added to 9 parts by weight of the solid dispersion and mixed with a mortar and pestle. A core tablet of 150 mg per tablet with a diameter of 6.5 mm was obtained under compression force of 500 kg/punch using an oil press. Moreover, 10 parts by weight of each filler were separately added to 5 parts by weight acetaminophen (Yoshitomi Seiyaku) and mixed with a mortar and pestle and core tablets of 150 mg per tablet with a diameter of 6.5 mm were obtained under compression force of 500 kg/punch using an oil press. Furthermore, 75 mg polyethylene oxide (Polyox® WSR303) and 175 mg Macrogol 6000 were mixed with a mortar and pestle as the outer layer. […] This tablet was immersed for 3 hours in water at 37° C. and then the gelated part of the tablet was peeled off and the uneroded core was removed. The core was dried in a dryer overnight at 40° C. and then weighed. The percentage erosion of the core tablet was calculated from the dry weight and initial weight.

[2] = test system: CYP3A4; assay: Test Example 7: midazolam plasma concentration in dogs with concomitant ketoconazol; settings: aqueous solution containing ketoconazol with midazolam
[3] = Solubility of each filler (amount of water needed to dissolve 1 g filler)
[4] = test system: CYP3A4; assay: Test Example 5: midazolam plasma concentration in dogs with concomitant Compound 1; settings: Experiment 1, midazolam singular administration, oral 4 mg/dog, n=6

SMILES	Percentage erosion (%) of compression-coated tablets containing acetaminophen [1] [%]	Percentage erosion (%) of compression-coated tablet containing Compound 1 [1] [%]	other results
OC[C@H]1O[C@@H](O[C@H]2[C@H](O)[C@@H](O)C(O)O[C@@H]2CO)[C@H](O)[C@@H](O)[C@H]1O (some centres unmarked) [Lactose]	7.6	24.0	
O=C1O[C@H]([C@@H](O)CO)C(O)=C1O [Ascorbic acid]		32.4	
CC(=O)N1CCN(c2ccc(OCC3COC(Cn4ccnc4)(c4ccc(Cl)cc4Cl)O3)cc2)CC1 (centres unmarked) [ketoconazol]			increase of average midazolam AUC compared to midazolam singular administration [2]: ≤ 4 times
O=C(O)CC(O)(CC(=O)O)C(=O)O [Citric acid]		60.3	
N[C@@H](CC(=O)O)C(=O)O [Aspartic acid]		1.4	
O=C(O)C(O)C(O)C(=O)O (centres unmarked) [Tartaric acid]		65.7	
O=C(O)CC(O)C(=O)O (centres unmarked) [Malic acid]	79.3	75.0	Solubility of filler ([3]; Table 3): 2 mL; Solubility of filler ([3]; Table 4): 2 mL
OC[C@H]1O[C@@](CO)(O[C@H]2O[C@H](CO)[C@@H](O)[C@H](O)[C@H]2O)[C@@H](O)[C@@H]1O [Sucrose]	56.1	48.4	Solubility of filler ([3]; Table 3): 1 mL; Solubility of filler ([3]; Table 4): 1 mL
O=C(O)/C=C/C(=O)O [Fumaric acid]		2.0	Solubility of filler ([3]; Table 3): > 10 mL
O=C(O)CCC(=O)O [Succinic acid]	12.8	19.2	
Cc1ncc2n1-c1ccc(Cl)cc1C(c1ccccc1F)=NC2 [Midazolam, midazolam]			Mean AUC of midazolam plasma concentration [4]: 9.0 ± 6.0 ngh/ml
